The source made the active and inactive calls. No cut-off for these calls is given here.
What was measured:
Mus musculus = test: Inhibition of corneal neovascularization in C57 mouse dosed via implanted with pumps at 1 uL/hr for 7 days by fluorescence microscopy; type: functional, organism-based
Rattus norvegicus [1] = test: Inhibition of oxygen-induced retinal angiogenesis in Sprague-Dawley rat dosed in right eye at stage at P9 and P11 during ischemic phase that follows oxygen exposure by epifluorescent microscopy; type: functional, organism-based
Rattus norvegicus [2] = test: Inhibition of retinal angiogenesis in newborn Sprague-Dawley rat dosed intravitreally at P1 stage and P3 by epifluorescent microscopy; type: functional, organism-based
K562 = test: Inhibition of cell adhesion in human K562 cells at 0.5 uM pre-incubated for 30 mins before cell adhesion to fibronectin for 30 mins by crystal violet staining based assay; type: functional

Compound	inhibition (Mus musculus)	inhibition (Rattus norvegicus [1])	inhibition (Rattus norvegicus [2])	inhibition (K562)
Cc1cc(C)c(S(=O)(=O)N[C@@H](CNC(=O)CO[C@@H]2C[C@@H](CNc3ccccn3)N(C(=O)OCC(C)C)C2)C(=O)O)c(C)c1	Active	Active	–	–
CC(C)(C)C(=O)N[C@@H](CNC(=O)CO[C@@H]1C[C@@H](CNc2ccccn2)N(C(=O)OCc2ccccc2)C1)C(=O)O	Active	Active	–	–
CCC(C)(C)C(=O)N[C@@H](CNC(=O)CO[C@@H]1C[C@@H](CNc2ccccn2)N(C(=O)OCc2ccccc2)C1)C(=O)O	Active	Active	–	–
Cc1cc(C)c(S(=O)(=O)N[C@@H](CNC(=O)CO[C@@H]2C[C@@H](CNc3ccccn3)N(C(=O)CC(C)(C)C)C2)C(=O)O)c(C)c1	Active	Active	–	–
Cc1cc(C)c(S(=O)(=O)N[C@@H](CNC(=O)CO[C@@H]2C[C@@H](CNc3ccccn3)N(C(=O)OCc3ccccc3)C2)C(=O)O)c(C)c1	Active	Active	Active	–
O=C(CO[C@@H]1C[C@@H](CNc2ccccn2)N(C(=O)OCc2ccccc2)C1)NC[C@H](NC(=O)c1ccccc1Cl)C(=O)O	Active	Active	–	–
COc1cccc(OC)c1C(=O)N[C@@H](CNC(=O)CO[C@@H]1C[C@@H](CNc2ccccn2)N(C(=O)OCc2ccccc2)C1)C(=O)O	Active	Active	–	–
COc1ccnc(NC[C@@H]2C[C@@H](OCC(=O)NC[C@H](NC(=O)C3(C)CCCCC3)C(=O)O)CN2C(=O)CC(C)(C)C)c1	Active	Active	–	–
O=C(CO[C@@H]1C[C@@H](CNc2ccccn2)N(C(=O)OCc2ccccc2)C1)NC[C@H](NC(=O)c1ccccc1[N+](=O)[O-])C(=O)O	Active	Active	–	–
Cc1cc(C)c(C(=O)N[C@@H](CNC(=O)CO[C@@H]2C[C@@H](CNc3ccccn3)N(C(=O)OCc3ccccc3)C2)C(=O)O)c(C)c1	Active	Active	–	Active
Cc1cccc(C)c1C(=O)N[C@@H](CNC(=O)CO[C@@H]1C[C@@H](CNc2ccccn2)N(C(=O)OCc2ccccc2)C1)C(=O)O	Active	Active	–	–
Cc1cc(C)c(S(=O)(=O)N[C@@H](CNC(=O)CO[C@@H]2C[C@@H](CNc3ccccn3)N(C(=O)NC3CCCC3)C2)C(=O)O)c(C)c1	Active	Active	–	–
C#CCOC(=O)N1C[C@H](OCC(=O)NC[C@H](NS(=O)(=O)c2c(C)cc(C)cc2C)C(=O)O)C[C@H]1CNc1ccccn1	Active	Active	–	–
O=C(CO[C@@H]1C[C@@H](CNc2ccccn2)N(C(=O)OCc2ccccc2)C1)NC[C@H](NC(=O)C1CCCCC1)C(=O)O	Active	Active	–	–

Reference: ChEMBL document CHEMBL4482316, “Compounds for the inhibition of angiogenesis and use thereof” (2013)
